According to patent publication US9133204B2, “5-membered heterocyclic amides and related compounds” (H. Lundbeck A/S, priority 2007, dated 2015):

Each molecule was assayed against T1, P2X7 receptor (Homo sapiens, UniProt Q99572) (assay: High throughput P2X7 calcium mobilization assay (Example 4A)). Details: SH-SY5Y cells; 50% decrease in fluorescence response of cells exposed to 80 μM BzATP; Table I.
T1 construct: host or cells: SH-SY5Y
T1 sequence (Q99572 1-595): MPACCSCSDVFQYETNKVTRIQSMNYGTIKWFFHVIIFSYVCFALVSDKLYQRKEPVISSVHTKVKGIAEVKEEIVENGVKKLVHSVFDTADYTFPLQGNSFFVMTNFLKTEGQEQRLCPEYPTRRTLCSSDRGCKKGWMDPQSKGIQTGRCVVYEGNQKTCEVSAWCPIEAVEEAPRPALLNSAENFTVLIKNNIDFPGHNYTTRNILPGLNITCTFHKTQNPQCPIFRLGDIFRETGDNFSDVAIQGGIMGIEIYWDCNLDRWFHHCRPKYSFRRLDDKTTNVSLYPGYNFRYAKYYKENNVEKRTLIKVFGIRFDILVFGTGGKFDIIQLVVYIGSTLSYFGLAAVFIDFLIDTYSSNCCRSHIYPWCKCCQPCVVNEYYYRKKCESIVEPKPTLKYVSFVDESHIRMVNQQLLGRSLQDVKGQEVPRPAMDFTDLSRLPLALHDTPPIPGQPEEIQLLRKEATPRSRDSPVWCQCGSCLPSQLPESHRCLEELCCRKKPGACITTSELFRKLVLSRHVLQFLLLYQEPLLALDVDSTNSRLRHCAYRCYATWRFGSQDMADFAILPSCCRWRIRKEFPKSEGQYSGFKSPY
Format: cell-based
Procedure, shortened: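 Calcium mobilization read by FLIPR as peak fluorescence over 2 min after adding BzATP to a final 80 μM (about EC50). Beforehand, Fluo-4 AM-loaded SH-SY5Y cells sat 1 h at room temperature with compound at 1–2500 nM in pH 7.4 sucrose/HEPES buffer; signal minus no-agonist wells.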

Row | IC50 [µM] | Structure (SMILES)
1 | ≤ 2 | CCCC(CNC(=O)c1cn(-c2ncccn2)nc1C(F)(F)F)c1ccc(Cl)cc1 (centres unmarked) [Compound 201, N-[2-(4-chlorophenyl)pentyl]-1-pyrimidin-2-yl-3-(trifluoromethyl)-1H-pyrazole-4-carboxamide]
2 | ≤ 2 | CC1(C)C2CC[C@@H](CNC(=O)c3cn(-c4ncccn4)nc3C(F)(F)F)C1C2 (stereo partly drawn) [Compound 194, N-{[(2R)-6,6-dimethylbicyclo[3.1.1]hept-2-yl]methyl}-1-pyrimidin-2-yl-3-(trifluoromethyl)-1H-pyrazole-4-carboxamide]
3 | ≤ 2 | Cc1nn(-c2cncc(N)n2)cc1C(=O)NCC(CC(C)C)c1ccc(C(F)(F)F)cc1 (centres unmarked) [Compound 180, 1-(6-aminopyrazin-2-yl)-3-methyl-N-{4-methyl-2-[4-(trifluoromethyl)phenyl]pentyl}-1H-pyrazole-4-carboxamide]
4 | ≤ 2 | O=C(NCC1(c2cccnc2)CCCCC1)c1sc(-n2ncccc2=O)nc1C(F)(F)F [Compound 307, 2-(6-oxopyridazin-1(6H)-yl)-N-[(1-pyridin-3-ylcyclohexyl)methyl]-4-(trifluoromethyl)-1,3-thiazole-5-carboxamide]
5 | ≤ 2 | Cc1cnc(-n2cc(C(=O)NCC(CC(C)C)c3ccc(C(F)(F)F)cc3)c(C(F)(F)F)n2)nc1N (centres unmarked) [Compound 171, 1-(4-amino-5-methylpyrimidin-2-yl)-N-{4-methyl-2-[4-(trifluoromethyl)phenyl]pentyl}-3-(trifluoromethyl)-1H-pyrazole-4-carboxamide]
6 | ≤ 2 | Cc1nn(-c2ncc(F)c(N)n2)cc1C(=O)NCC(CC(C)C)c1ccc(C(F)(F)F)cc1 (centres unmarked) [Compound 116, 1-(4-amino-5-fluoropyrimidin-2-yl)-3-methyl-N-{4-methyl-2-[4-(trifluoromethyl)phenyl]pentyl}-1H-pyrazole-4-carboxamide]
7 | ≤ 2 | Cc1nn(-c2nccc(N)n2)cc1C(=O)NCC12CC3CC(CC(C3)C1)C2 [Compound 99, N-(adamantan-1-ylmethyl)-1-(4-aminopyrimidin-2-yl)-3-methyl-1H-pyrazole-4-carboxamide]
8 | ≤ 2 | Cc1cnc(-n2cc(C(=O)NCC3(c4ccc(F)cc4)CCCCC3)c(C(F)(F)F)n2)nc1N [Compound 190, 1-(4-amino-5-methylpyrimidin-2-yl)-N-{[1-(4-fluorophenyl)cyclohexyl]methyl}-3-(trifluoromethyl)-1H-pyrazole-4-carboxamide]
9 | ≤ 2 | Cc1cnc(-n2cc(C(=O)NCC34CC5CC(CC(C5)C3)C4)c(C)n2)nc1-c1ccncc1 [Compound 119, N-(adamantan-1-ylmethyl)-3-methyl-1-(5-methyl-4-pyridin-4-ylpyrimidin-2-yl)-1H-pyrazole-4-carboxamide]
10 | ≤ 2 | COc1ccc(C2(CNC(=O)c3cn(-c4ncc(F)c(N)n4)nc3C(F)(F)F)CCCCC2)cc1 [Compound 168, 1-(4-amino-5-fluoropyrimidin-2-yl)-N-{[1-(4-methoxyphenyl)cyclohexyl]methyl}-3-(trifluoromethyl)-1H-pyrazole-4-carboxamide]
11 | ≤ 2 | Nc1ccnc(-n2cc(C(=O)NCC34CC5CC(CC(C5)C3)C4)c(C(F)(F)F)n2)n1 [Compound 130, N-(adamantan-1-ylmethyl)-1-(4-aminopyrimidin-2-yl)-3-(trifluoromethyl)-1H-pyrazole-4-carboxamide]
12 | ≤ 2 | Cc1ccc(-n2cc(C(=O)NCC34CC5CC(CC(C5)C3)C4)c(C(F)(F)F)n2)nc1 [Compound 124, N-(adamantan-1-ylmethyl)-1-(5-methylpyridin-2-yl)-3-(trifluoromethyl)-1H-pyrazole-4-carboxamide]
13 | ≤ 2 | O=C(NCC(O)C12CC3CC(CC(C3)C1)C2)c1cn(-c2ncccn2)nc1C(F)(F)F (centres unmarked) [Compound 205, N-(2-adamantan-1-yl-2-hydroxyethyl)-1-pyrimidin-2-yl-3-(trifluoromethyl)-1H-pyrazole-4-carboxamide]
14 | ≤ 2 | O=C(NCCC12CC3CC(CC(C3)C1)C2)c1cn(-c2ncccn2)nc1C(F)(F)F [Compound 193, N-(2-adamantan-1-ylethyl)-1-pyrimidin-2-yl-3-(trifluoromethyl)-1H-pyrazole-4-carboxamide]
15 | ≤ 2 | Cc1nn(C)c(C(=O)NCC23CC4CC(CC(C4)C2)C3)c1Br [Compound 62, N-(adamantan-1-ylmethyl)-4-bromo-1,3-dimethyl-1H-pyrazole-5-carboxamide]
16 | ≤ 2 | CC(C)c1nn(-c2ncc(F)c(N)n2)cc1C(=O)NCC12CC3CC(CC(C3)C1)C2 [Compound 126, N-(adamantan-1-ylmethyl)-1-(4-amino-5-fluoropyrimidin-2-yl)-3-isopropyl-1H-pyrazole-4-carboxamide]
17 | ≤ 2 | O=C(NCC12CC3CC(CC(C3)C1)C2)c1cn(-c2cnccn2)nc1C(F)(F)F [Compound 136, N-(adamantan-1-ylmethyl)-1-pyrazin-2-yl-3-(trifluoromethyl)-1H-pyrazole-4-carboxamide]
18 | ≤ 2 | O=C(NCC1(N2CCOCC2)CCCCC1)c1sc(-c2ncccn2)nc1C(F)(F)F [Compound 159, N-[(1-morpholin-4-ylcyclohexyl)methyl]-2-pyrimidin-2-yl-4-(trifluoromethyl)-1,3-thiazole-5-carboxamide]
19 | ≤ 2 | CCc1nc(-c2ncccn2)sc1C(=O)NC1CC(C)CC(C)(C)C1 (centres unmarked) [Compound 236, 4-ethyl-2-pyrimidin-2-yl-N-(3,3,5-trimethylcyclohexyl)-1,3-thiazole-5-carboxamide]
20 | ≤ 2 | Cc1cnc(-n2cc(C(=O)NCC3(c4ccc(C(F)(F)F)cc4)CCCCC3)c(C(C)(C)C)n2)nc1N [Compound 177, 1-(4-amino-5-methylpyrimidin-2-yl)-3-tert-butyl-N-({1-[4-(trifluoromethyl)phenyl]cyclohexyl]methyl)-1H-pyrazole-4-carboxamide]
21 | ≤ 2 | CCCC(CNC(=O)c1sc(-c2ncccn2)nc1CC)c1ccc(Cl)cc1 (centres unmarked) [Compound 277, N-[2-(4-chlorophenyl)pentyl]-4-ethyl-2-pyrimidin-2-yl-1,3-thiazole-5-carboxamide]
22 | ≤ 2 | Nc1nc(-n2cc(C(=O)NCC3(c4ccc(Cl)cc4)CCC3)c(C(F)(F)F)n2)ncc1F [Compound 167, 1-(4-amino-5-fluoropyrimidin-2-yl)-N-{[1-(4-chlorophenyl)cyclobutyl]methyl}-3-(trifluoromethyl)-1H-pyrazole-4-carboxamide]
23 | ≤ 2 | Cn1nc(C(F)(F)F)cc1-c1ccc(C(=O)NCCC23CC4CC(CC(C4)C2)C3)s1 [Compound 85, N-[2-(1-adamantyl)ethyl]-5-[1-methyl-3-(trifluoromethyl)-1H-pyrazol-5-yl]thiophene-2-carboxamide]
24 | ≤ 2 | O=C(NCC12CC3CC(CC(C3)C1)C2)c1sc(-c2ccccc2C(F)(F)F)nc1Cl [Compound 65, N-(adamantan-1-ylmethyl)-4-chloro-2-[2-(trifluoromethyl)phenyl]-1,3-thiazole-5-carboxamide]

Same assay, conditions: SH-SY5Y cells; 50% decrease in fluorescence response of cells exposed to 80 μM BzATP; flag after the MS data in Examples 1-2

Row | IC50 [µM] | Structure (SMILES)
25 | ≤ 2 | Cn1nc(-c2ccccc2)cc1C(=O)NCC1(c2cccnc2)CCCCC1 [Compound 19, 1-Methyl-3-phenyl-N-[(1-pyridin-3-ylcyclohexyl)methyl]-1H-pyrazole-5-carboxamide]
26 | ≤ 2 | COc1ccc(C2(CNC(=O)c3sc(-c4cccnc4)nc3C)CCCCC2)cc1 [Compound 36, N-{[1-(4-methoxyphenyl)cyclohexyl]methyl}-4-methyl-2-pyridin-3-yl-1,3-thiazole-5-carboxamide]
27 | ≤ 2 | Cc1ccc(C2(CNC(=O)c3sc(-c4cccnc4)nc3C)CCCCC2)cc1 [Compound 38, N-{[1-(4-methylphenyl)cyclohexyl]methyl}-4-methyl-2-pyridin-3-yl-1,3-thiazole-5-carboxamide]
28 | ≤ 2 | O=C(NCC12CC3CC(CC(C3)C1)C2)c1cnn(-c2ncccn2)c1Cl [Compound 8, N-(Adamantan-1-ylmethyl)-5-chloro-1-pyridimin-2-yl-1H-pyrazole-4-carboxamide]
29 | ≤ 2 | Cc1nc(-c2cccnc2)sc1C(=O)NCC1(c2ccc(C(F)(F)F)cc2)CCCCC1 [Compound 32, N-({1-[4-(trifluoromethyl)phenyl]cyclohexyl}methyl)-4-methyl-2-pyridin-3-yl-1-,3-thiazole-5-carboxamide]
30 | ≤ 2 | Cc1nc(-c2cccnc2)sc1C(=O)NCC1(c2ccc(Cl)cc2)CCOCC1 [Compound 37, N-{[4-(4-Chlorophenyl)tetrahydro-2H-pyran-4-yl]methyl}-4-methyl-2-pyridin-3-yl-1,3-thiazole-5-carboxamide]
31 | ≤ 2 | O=C(NCC1(c2cccnc2)CCCCC1)c1cn(-c2ncccn2)nc1Cl [Compound 11, 3-Chloro-N-[(1-pyridin-3-ylcyclohexyl)methyl]-1-pyrimidin-2-yl-1H-pyrazole-4-carboxamide]
32 | ≤ 2 | O=C(NCC12CC3CC(CC(C3)C1)C2)c1cn(-c2ncc(F)cn2)nc1C(F)F [Compound 3, 3-(Difluoromethyl)-1-(5-fluoro-pyrimidin-2-yl)-1H-pyrazole-4-carboxylic acid (adamantan-1-ylmethyl)-amide]
